From patent US9433621B2, “Substituted pyridine and pyrimidine derivatives and their use in treating viral infections” (Merck Sharp & Dohme Corp., priority 2010, dated 2016)

The molecules below were run on HCV replicon (assay: Cell-Based HCV Replicon Assay). Details: Hepatitis C virus, 72 h; Table IV; replicon cells, day 3, real time PCR; EC90 = concentration for ΔCT=3.2 over baseline; read-out: EC90.
In short: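 EC50 and EC90 taken from sigmoid fits of ΔCT (5B minus GAPDH) as the concentrations raising ΔCT by 1 and 3.2 over baseline, via multiplex real-time RT-PCR on lysates after 3 days. Replicon cells at 5000/well; 10 two-fold dilutions from 25–1 μM, 0.5% DMSO, 10% FBS.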

SMILES	EC90 [µM]
Cc1nc(NCC2CC(F)(F)C2)nc(N[C@@H]2C[C@H](C(C)(C)O)[C@@H](O)[C@H]2O)c1-c1nc2c(C)nccc2s1 [Example 3239]	0.01
CCOCCNc1nc(C)c(-c2nc3c(C4CC4)nccc3s2)c(N[C@@H]2C[C@H](CS(=O)(=O)CC)[C@@H](O)[C@H]2O)n1 [Example 3721]	0.024
CCOc1cc2cc(-c3c(C)nc(NCC4CC4)nc3N[C@@H]3C[C@H](C(C)(C)O)[C@@H](O)[C@H]3O)oc2c(C)n1 [Example 2511]	0.13
Cc1nc(NCc2c(F)cccc2F)nc(N[C@@H]2C[C@H](CS(C)(=O)=O)[C@@H](O)[C@H]2O)c1-c1nc2c(C3CC3)nccc2s1 [Example 3538]	0.007
CCC(O)(CC)[C@H]1C[C@@H](Nc2nc(NCC3CC3)nc(C)c2-c2nc3c(C)nccc3s2)[C@H](O)[C@@H]1O [Example 3182]	0.068

Same assay, conditions: Hepatitis C virus, 72 h; Table V, class codes; replicon cells, day 3, real time PCR; EC90 = concentration for ΔCT=3.2 over baseline; read-out: EC90 (uM) range

SMILES	EC90 [µM]
CNc1nc(C)c(-c2nc3c(C)nccc3s2)c(N[C@@H]2C[C@H](CO)[C@@H](OC)[C@H]2O)n1 [Example 4906]	0.5 to 5
CO[C@@H]1[C@@H](CO)C[C@@H](Nc2nc(N[C@H](C)c3ccc(OC(F)(F)F)cc3)nc(C)c2-c2nc3c(C)nccc3s2)[C@@H]1O [Example 4904]	< 0.5
COCCNc1nc(C)c(-c2nc3c(C4CC4)nccc3s2)c(N[C@@H]2C[C@H](C(=O)Nc3ccncc3)[C@@H](O)[C@H]2O)n1 [Example 4956]	< 0.5
Cc1nc(N)nc(N[C@@H]2C[C@H](C(=O)NC(C)(C)C)[C@@H](O)[C@H]2O)c1-c1nc2c(C3CC3)nccc2s1 [Example 4929]	< 0.5
CO[C@H](C)CNc1ncc(-c2nc3c(C)nccc3s2)c(N[C@@H]2C[C@H](C(C)(C)O)[C@@H](O)[C@H]2O)n1 [Example 4939]	< 0.5
CCSCCNc1ncc(-c2nc3c(C)nccc3s2)c(N[C@@H]2C[C@H](C(C)(C)O)[C@@H](O)[C@H]2O)n1 [Example 4936]	< 0.5

Same assay, conditions: Hepatitis C virus; HCV Replicon assay, EC90 range, Table VI; read-out: EC90

SMILES	EC90 [µM]
Cc1nc(N[C@@H]2CCCC[C@H]2O)nc(N[C@@H]2C[C@H](CO)[C@@H](O)[C@H]2O)c1-c1nc2c(C)nccc2s1 [Example 5148]	< 0.5
CCC(CNc1nc(C)c(-c2nc3c(C)nccc3s2)c(N[C@@H]2C[C@H](C(C)(C)O)[C@@H](O)[C@H]2O)n1)OC (stereo partly shown) [Example 5196]	< 0.5
CO[C@H]1C[C@H]([C@@H](C)Nc2nc(C)c(-c3nc4c(C)nccc4s3)c(N[C@@H]3C[C@H](CO)[C@@H](O)[C@H]3O)n2)C1 [Example 5302]	< 0.5
Cc1nc(NCCSc2ccccc2)nc(N[C@@H]2C[C@H](C(C)(C)O)[C@@H](O)[C@H]2O)c1-c1nc2c(C)nccc2s1 [Example 5280]	< 0.5
CO[C@H]1CCC[C@@H]1Nc1nc(C)c(-c2nc3c(C4CC4)nccc3s2)c(N[C@@H]2C[C@H](CO)[C@@H](O)[C@H]2O)n1 [Example 5147]	< 0.5
Cc1nc(N[C@H](C)c2c(F)c(F)c(C)c(F)c2F)nc(N[C@@H]2C[C@H](CS(=O)(=O)c3ccc(F)cc3)[C@@H](O)[C@H]2O)c1-c1nc2c(C3CC3)nccc2s1 [Example 5203]	0.5 to 5
CO[C@@H](CNc1nc(C)c(-c2nc3c(C4CC4)nccc3s2)c(N[C@@H]2C[C@H](CO)[C@@H](O)[C@H]2O)n1)C(F)(F)F [Example 5231]	< 0.5
CO[C@@H](CNc1nc(C)c(-c2nc3c(C)nccc3s2)c(N[C@@H]2C[C@H](C(C)(C)O)[C@@H](O)[C@H]2O)n1)C(F)(F)F [Example 5232]	< 0.5
Cc1nc(NCC(F)(F)C(F)(F)F)nc(NC2(C)CCC2)c1-c1nc2c(C)nccc2s1 [Example 5220]	0.5 to 5
Cc1nc(NCC2CC2)nc(N[C@@H]2C[C@H](NC(=O)NC3CCCC3)[C@@H](O)[C@H]2O)c1-c1nc2c(C3CC3)nccc2s1 [Example 5093]	< 0.5
CO[C@@H](CNc1nc(C)c(-c2nc3c(C)nccc3s2)c(N[C@@H]2C[C@H](CO)[C@@H](O)[C@H]2O)n1)C(F)(F)F [Example 5230]	< 0.5
Cc1nc(N)nc(N[C@@H]2C[C@H](CS(=O)(=O)c3cc(F)cc(F)c3)[C@@H](O)[C@H]2O)c1-c1nc2c(N)nccc2s1 [Example 5211]	< 0.5
Cc1nc(N)nc(N[C@@H]2C[C@H](C(C)(C)O)[C@@H](O)[C@H]2O)c1-c1nc2c(C)nccc2s1 [Example 5242]	< 0.5
Cc1nc(NCC2(O)CCCC2)nc(N[C@@H]2C[C@H](C3(O)CCCC3)[C@@H](O)[C@H]2O)c1-c1nc2c(C)nccc2s1 [Example 5110]	< 0.5
Cc1nc(NCCSC(C)(C)C)nc(N[C@@H]2C[C@H](C(C)(C)NS(C)(=O)=O)[C@@H](O)[C@H]2O)c1-c1nc2c(C)nccc2s1 [Example 5039]	< 0.5
COCCC1(CNc2nc(C)c(-c3nc4c(C)nccc4s3)c(N[C@@H]3C[C@H](C(C)(C)O)[C@@H](O)[C@H]3O)n2)CCOCC1 [Example 5287]	< 0.5
COC[C@@H](C)Nc1nc(C)c(-c2nc3c(C)nccc3s2)c(N[C@@H]2C[C@H](C(C)(C)NS(C)(=O)=O)[C@@H](O)[C@H]2O)n1 [Example 5037]	< 0.5
Cc1nc(NCC2(O)CC2)nc(N[C@@H]2C[C@H](CS(=O)(=O)c3cc(F)cc(F)c3)[C@@H](O)[C@H]2O)c1-c1nc2c(C)nccc2s1 [Example 5118]	< 0.5
Cc1nc(N[C@H](C)C2CC2)nc(N[C@@H]2C[C@H](COc3c(F)cccc3F)[C@@H](O)[C@H]2O)c1-c1nc2c(C)nccc2s1 [Example 5207]	< 0.5
Cc1nc(N[C@H](C)C2CC2)nc(N[C@@H]2C[C@H](NC(=O)NC(C)(C)C)[C@@H](O)[C@H]2O)c1-c1nc2c(C3CC3)nccc2s1 [Example 5089]	< 0.5
Cc1nc(NCC2CC2)nc(N[C@@H]2C[C@H](NC(=O)Nc3ccccc3)[C@@H](O)[C@H]2O)c1-c1nc2c(C3CC3)nccc2s1 [Example 5092]	< 0.5
CO[C@H](C)CNc1nc(C)c(-c2nc3c(C)nccc3s2)c(N[C@@H]2C[C@H](C(C)(C)NS(C)(=O)=O)[C@@H](O)[C@H]2O)n1 [Example 5038]	< 0.5

SMILES	EC90 [µM]
COC(C)(C)[C@H]1C[C@@H](Nc2nc(NCC3CC3)nc(C)c2-c2nc3c(C)nccc3s2)[C@H](O)[C@@H]1O [Example 5276]	< 0.5
CO[C@@H]1CCC[C@@H]1Nc1nc(C)c(-c2nc3c(C)nccc3s2)c(N[C@@H]2C[C@H](C(C)(C)O)[C@@H](O)[C@H]2O)n1 [Example 5144]	0.5 to 5
CCC(O)(CC)[C@H]1C[C@@H](Nc2nc(N)nc(C)c2-c2nc3c(C)nccc3s2)[C@H](O)[C@@H]1O [Example 5273]	< 0.5
Cc1nc(N[C@H]2CCC[C@@H]2O)nc(N[C@@H]2C[C@H](CO)[C@@H](O)[C@H]2O)c1-c1nc2c(C)nccc2s1 [Example 5150]	< 0.5
CO[C@@H](CNc1nc(C)c(-c2nc3c(C4CC4)nccc3s2)c(N[C@@H]2C[C@H](CO)[C@@H](O)[C@H]2O)n1)c1ccc(F)cc1 [Example 5227]	< 0.5
CCS(=O)(=O)C(C)(C)[C@H]1C[C@@H](Nc2nc(NCC3CC3)nc(C)c2-c2nc3c(C4CC4)nccc3s2)[C@H](O)[C@@H]1O [Example 5059]	< 0.5
CO[C@@H]1[C@H](OC)[C@@H](C(C)(C)O)C[C@H]1Nc1nc(NC[C@@H](C)OC)nc(C)c1-c1nc2c(C)nccc2s1 [Example 5264]	< 0.5
Cc1nc(N)nc(N[C@@H]2C[C@H](C3(O)CCCC3)[C@@H](O)[C@H]2O)c1-c1nc2c(C)nccc2s1 [Example 5107]	< 0.5
Cc1ccc(S(=O)(=O)C[C@H]2C[C@@H](Nc3nc(NC4CC4)nc(C)c3-c3nc4c(C)nccc4s3)[C@H](O)[C@@H]2O)cc1F [Example 5003]	< 0.5
Cc1nc(NC(=N)NCC2CC2)nc(N[C@@H]2C[C@H](C(C)(C)O)[C@@H](O)[C@H]2O)c1-c1nc2c(C)nccc2s1 [Example 5202]	> 25
CNS(=O)(=O)C[C@H]1C[C@@H](Nc2nc(NCC3CC3)nc(C)c2-c2nc3c(C)nc(C)cc3s2)[C@H](O)[C@@H]1O [Example 5026]	< 0.5
Cc1nc(NCC(F)(F)C(F)(F)F)nc(N[C@@H]2C[C@H](CS(=O)(=O)c3ccc(F)cc3)[C@@H](O)[C@H]2O)c1-c1nc2c(C3CC3)nccc2s1 [Example 5225]	< 0.5
Cc1nc(NC2CC2)nc(N[C@@H]2C[C@H](C(C)(C)NS(C)(=O)=O)[C@@H](O)[C@H]2O)c1-c1nc2c(C)nccc2s1 [Example 5048]	< 0.5
Cc1nc(NCCSC(C)(C)C)nc(N[C@@H]2C[C@H](CC(C)(C)O)[C@@H](O)[C@H]2O)c1-c1nc2c(C)nccc2s1 [Example 5309]	< 0.5
Cc1nc(NCC2CC2)nc(N[C@@H]2C[C@H](C(C)(C)S(C)(=O)=O)[C@@H](O)[C@H]2O)c1-c1nc2c(C3CC3)nccc2s1 [Example 5073]	< 0.5
Cc1nc(N)nc(N[C@@H]2C[C@H](C(C)(C)S(C)(=O)=O)[C@@H](O)[C@H]2O)c1-c1nc2c(C3CC3)nccc2s1 [Example 5072]	< 0.5
COC[C@@H](C)Nc1nc(C)c(-c2nc3c(C)nccc3s2)c(N[C@@H]2C[C@H](C(C)(C)NC(=O)OC)[C@@H](O)[C@H]2O)n1 [Example 5040]	< 0.5
COCCNc1nc(C)c(-c2nc3c(C4CC4)nccc3s2)c(NC2(CO)CCCC2)n1 [Example 5126]	< 0.5
COC1(CNc2nc(C)c(-c3nc4c(C)nccc4s3)c(N[C@@H]3C[C@H](C(C)(C)O)[C@@H](O)[C@H]3O)n2)CCCCC1 [Example 5195]	< 0.5
Cc1nc(NC2(C(C)C)CC2)nc(N[C@@H]2C[C@H](C(C)(C)O)[C@@H](O)[C@H]2O)c1-c1nc2c(C)nccc2s1 [Example 5030]	0.5 to 5
Cc1nc(NC2(C3CCCC3)CC2)nc(N[C@@H]2C[C@H]([C@H](O)C(C)C)[C@@H](O)[C@H]2O)c1-c1nc2c(C)nccc2s1 [Example 5108]	< 0.5
Cc1nc(NCc2c(F)cc(F)cc2F)nc(N[C@@H]2C[C@H](C(C)(C)S(C)(=O)=O)[C@@H](O)[C@H]2O)c1-c1nc2c(C3CC3)nccc2s1 [Example 5065]	< 0.5
